In BindingDB's records for doi:10.1021/jm960054c (Merck Research Laboratories, 1996) one finds Ki data, which are given here for two compounds.

Each structure is given as a SMILES string.

The test has as its target Growth hormone secretagogue receptor type 1 (Sus scrofa). Nature of the test: Binding Affinity against Growth hormone secretagogue receptor of swine using [35S]MK-0677 as radioligand.

What is called Ki is a measure of affinity in units of concentration, obtained from inhibition or displacement. `CC(C)(N)CC(=O)N[C@@H]1CCc2ccccc2N(Cc2ccc(-c3ccccc3-c3nnn[nH]3)cc2)C1=O` [3-Amino-3-methyl-N-{2-oxo-1-[2'-(1H-tetrazol-5-yl)-biphenyl-4-ylmethyl]-2,3,4,5-tetrahydro-1H-benzo[b]azepin-3-yl}-butyramide] gave a Ki of 63 nM.

In the case of `CC(C)(N)CC(=O)N[C@H]1CCc2ccccc2N(Cc2ccc(-c3ccccc3-c3nnn[nH]3)cc2)C1=O` [3-Amino-3-methyl-N-{(S)-2-oxo-1-[2'-(1H-tetrazol-5-yl)-biphenyl-4-ylmethyl]-2,3,4,5-tetrahydro-1H-benzo[b]azepin-3-yl}-butyramide], the Ki is > 5000 nM.
